The values that follow come from patent US20110071150A1 (priority 2009, published 2011).

Usually IC50 stands for the concentration that gives 50% inhibition.

Each structure is given as a SMILES string.

This assay has as its system Jurkat IL-2 Production. Description: Jurkat IL-2 Production Assay. The format is cell-based. The following applies: Homo sapiens, Jurkat cell (ATCC), 18-20 h incubation, PHA 5 μg/mL with 1% FBS, or PMA/Ionomycin with 30% FBS (table does not say which). Summed up:
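Jurkat cells were exposed to compound (0.25% DMSO final) for 10 min, then stimulated for 18–20 h at 37 °C. The 1% FBS condition used 5 μg/mL PHA; the high-serum condition (30% FBS) used 50 ng/mL PMA plus 500 ng/mL ionomycin. IC50 was derived from IL-2 production.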
In turn, `COc1cnc(-c2ccc3[nH]c(-c4c(F)cccc4Cl)cc3c2)c(C)c1` [Example 122, 2-(2-Chloro-6-fluoro-phenyl)-5-(5-methoxy-3-methyl-pyridin-2-yl)-1H-indole] showed an IC50 of 260 nM. For `Cn1nc(C(F)(F)F)cc1-c1ccc2[nH]c(-c3ccncc3Cl)cc2c1` [Example 36, 2-(3-Chloro-pyridin-4-yl)-5-(2-methyl-5-trifluoromethyl-2H-pyrazol-3-yl)-1H-indole] the value was 131 nM; for `Cc1cc(-c2cncnc2)ncc1-c1ccc2[nH]c(-c3c(F)cccc3F)cc2c1` [Example 210, 2-(2,6-Difluoro-phenyl)-5-(4-methyl-6-pyrimidin-5-yl-pyridin-3-yl)-1H-indole], 60 nM. The same measure for `Cc1cc(-c2cnc(N)nc2)ncc1-c1ccc2[nH]c(-c3c(F)cccc3F)cc2c1` [Example 209, 5-{5-[2-(2,6-Difluoro-phenyl)-1H-indol-5-yl]-4-methyl-pyridin-2-yl}-pyrimidin-2-ylamine]: 54 nM; for `Cc1cc(N2CCOCC2)ncc1-c1ccc2[nH]c(-c3c(F)cccc3Cl)cc2c1` [Example 165, 4-(5-(2-(2-chloro-6-fluorophenyl)-1H-indol-5-yl)-4-methylpyridin-2-yl)morpholine]: 316 nM.

Turning to `Cc1sc(-c2cccnc2)nc1-c1ccc2[nH]c(-c3c(F)cccc3Cl)cc2c1` [Example 50, 2-(2-Chloro-6-fluoro-phenyl)-5-(5-methyl-2-pyridin-3-yl-thiazol-4-yl)-1H-indole], the IC50 is 13 nM. Compound `COc1cc(F)c(-c2cc3cc(-c4ccc(C#N)cc4C)ccc3[nH]2)c(Cl)c1` [Example 202, 4-(2-(2-chloro-6-fluoro-4-methoxyphenyl)-1H-indol-5-yl)-3-methylbenzonitrile] had an IC50 of 57 nM. The same measure for `Cc1sc(-c2ncco2)nc1-c1ccc2[nH]c(-c3c(F)cccc3F)cc2c1` [Example 73, 2-(2,6-Difluoro-phenyl)-5-(5-methyl-2-oxazol-2-yl-thiazol-4-yl)-1H-indole]: 60 nM; for `CCn1nc(C(F)(F)F)cc1-c1ccc2[nH]c(C3=CCCCC3)cc2c1` [Example 195, 2-cyclohexenyl-5-[1-ethyl-3-{trifluoromethyl}-1H-pyrazol-5-yl]-1H-indole]: 782 nM; for `COc1cc(C)c(-c2ccc3[nH]c(C4CCCCC4)cc3c2)cn1` [Example 224, 2-cyclohexyl-5-(6-methoxy-4-methylpyridin-3-yl)-1H-indole]: 83 nM. On to `Cn1nc(-c2cc[nH]n2)cc1-c1ccc2[nH]c(-c3c(F)cccc3F)cc2c1` [Example 108, 2-(2,6-Difluoro-phenyl)-5-(1-methyl-1H,1′H-[3,3]bipyrazolyl-5-yl)-1H-indole], for which half-maximal inhibition (IC50) required 601 nM.

As to `Cc1sc(-c2ccncc2)nc1-c1ccc2[nH]c(-c3c(F)cccc3F)cc2c1` [Example 21, 2-(2,6-Difluoro-phenyl)-5-(5-methyl-2-pyridin-4-yl-thiazol-4-yl)-1H-indole], 90 nM corresponded to half-maximal inhibition (IC50). This IC50 lies about 6.7-fold lower than the previous one. The same measure for `Cc1sc(-c2cnccn2)nc1-c1ccc2[nH]c(-c3c(F)cccc3Cl)cc2c1` [Example 176, 2-(2-Chloro-6-fluoro-phenyl)-5-(5-methyl-2-pyrazin-2-yl-thiazol-4-yl)-1H-indole]: 14 nM; for `Fc1cccc(F)c1-c1cc2cc(-c3ccc(C(F)(F)F)cc3C(F)(F)F)ccc2[nH]1` [Example 92, 5-(2,4-Bis-trifluoromethyl-phenyl)-2-(2,6-difluoro-phenyl)-1H-indole]: 188 nM. The same measure for `Cn1nc(-c2cccnc2)cc1-c1ccc2[nH]c(-c3c(F)cccc3F)cc2c1` [Example 19, 2-(2,6-Difluoro-phenyl)-5-(2-methyl-5-pyridin-3-yl-2H-pyrazol-3-yl)-1H-indole]: 198 nM; for `Cc1cc(C#N)ccc1-c1ccc2[nH]c(-c3ccccc3Cl)cc2c1` [Example 129, 4-[2-(2-Chloro-phenyl)-1H-indol-5-yl]-3-methyl-benzonitrile]: 237 nM; for `Cc1sc(-c2cccnc2)nc1-c1ccc2[nH]c(-c3ccncc3F)cc2c1` [Example 64, 2-(3-Fluoro-pyridin-4-yl)-5-(5-methyl-2-pyridin-3-yl-thiazol-4-yl)-1H-indole]: 81 nM. As to `Cc1ccc(-c2ccc3[nH]c(-c4c(F)cccc4F)cc3c2)c(C)c1` [Example 29, 2-(2,6-Difluoro-phenyl)-5-(2,4-dimethyl-phenyl)-1H-indole], the IC50 came to 168 nM.

On to `COc1cc(C#N)ccc1-c1ccc2[nH]c(-c3cnccc3C)cc2c1` [Example 213], for which 105 nM corresponded to half-maximal inhibition (IC50).

Consider `Cn1nc(C2CC2)cc1-c1ccc2[nH]c(-c3ccccc3Cl)cc2c1` [Example 61, 2-(2-Chloro-phenyl)-5-(5-cyclopropyl-2-methyl-2H-pyrazol-3-yl)-1H-indole], for which the IC50 is 848 nM. `Fc1cccc(Cl)c1-c1cc2cc(-c3ccc(C(F)(F)F)cc3Cl)ccc2[nH]1` [Example 56, 2-(2-Chloro-6-fluoro-phenyl)-5-(2-chloro-4-trifluoromethyl-phenyl)-1H-indole]: the IC50 amounted to 132 nM. In turn, `Cc1sc(I)nc1-c1ccc2[nH]c(-c3c(F)cccc3F)cc2c1` [Example 106, 2-(2,6-Difluoro-phenyl)-5-(2-iodo-5-methyl-thiazol-4-yl)-1H-indole] showed an IC50 of 488 nM. Take `Cc1sc(-c2ccccn2)nc1-c1ccc2[nH]c(-c3ccncc3F)cc2c1` [Example 9, 2-(3-Fluoro-pyridin-4-yl)-5-(5-methyl-2-pyridin-2-yl-thiazol-4-yl)-1H-indole]: the half-inhibitory concentration (IC50) stood at 908 nM. For `Cn1nc(-c2ccncc2)cc1-c1ccc2[nH]c(-c3c(F)cccc3Cl)cc2c1` [Example 51, 2-(2-Chloro-6-fluoro-phenyl)-5-(2-methyl-5-pyridin-4-yl-2H-pyrazol-3-yl)-1H-indole] the value was 524 nM; for `CCn1nc(-c2ccncc2)cc1-c1ccc2[nH]c(-c3c(F)cccc3F)cc2c1` [Example 18, 2-(2,6-Difluoro-phenyl)-5-(2-ethyl-5-pyridin-4-yl-2H-pyrazol-3-yl)-1H-indole], 102 nM; for `Fc1cccc(Cl)c1-c1cc2cc(-c3ccc(C(F)(F)F)cc3C(F)(F)F)ccc2[nH]1` [Example 55, 5-(2,4-Bis-trifluoromethyl-phenyl)-2-(2-chloro-6-fluoro-phenyl)-1H-indole], 79 nM. `Cc1cc(C#N)ccc1-c1ccc2[nH]c(-c3cnccc3C)cc2c1` [Example 144, methyl-4-(2-(4-methylpyridin-3-yl)-1H-indol-5-yl)benzonitrile]: half-maximal inhibition (IC50) required 96 nM. As for `Cn1nc(-c2cccnc2)cc1-c1ccc2[nH]c(-c3ccccc3F)cc2c1` [Example 75, 2-(2-Fluoro-phenyl)-5-(2-methyl-5-pyridin-3-yl-2H-pyrazol-3-yl)-1H-indole], the IC50 worked out at 310 nM. `Cn1nc(-c2cccnc2)nc1-c1ccc2[nH]c(-c3c(F)cccc3F)cc2c1` [Example 114, 2-(2,6-Difluoro-phenyl)-5-(2-methyl-5-pyridin-3-yl-2H-[1,2,4]triazol-3-yl)-1H-indole] showed an IC50 of 39 nM. The same measure for `CCn1nc(-c2cccnc2)cc1-c1ccc2[nH]c(-c3ccccc3F)cc2c1` [Example 76, 2-(2-Fluoro-phenyl)-5-(2-ethyl-5-pyridin-3-yl-2H-pyrazol-3-yl)-1H-indole]: 108 nM; for `CCc1cc(Cl)ncc1-c1ccc2[nH]c(-c3c(F)cccc3Cl)cc2c1` [Example 174, 5-(6-Chloro-4-ethyl-pyridin-3-yl)-2-(2-chloro-6-fluoro-phenyl)-1H-indole]: 22 nM.

`Cc1cc(S(=O)(=O)N(C)C)cnc1-c1ccc2[nH]c(-c3c(F)cccc3Cl)cc2c1` [Example 167, 6-(2-(2-chloro-6-fluorophenyl)-1H-indol-5-yl)-N,N,5-trimethylpyridine-3-sulfonamide]: half-maximal inhibition (IC50) was put at 34 nM. `Cc1cc(C(=O)O)ccc1-c1cc2cc(-c3cc(C(F)(F)F)nn3C)ccc2[nH]1` [Example 40] had an IC50 of 728 nM. Against the preceding compound, the IC50 is about 21-fold higher. The same measure for `Cn1nc(C(F)(F)F)cc1-c1ccc2[nH]c(-c3ccncc3F)cc2c1` [Example 44, 2-(3-Fluoro-pyridin-4-yl)-5-(2-methyl-5-trifluoromethyl-2H-pyrazol-3-yl)-1H-indole]: 169 nM; for `Cc1cc(C#N)ccc1-c1ccc2[nH]c(-c3c(F)cc(OCCCC#N)cc3F)cc2c1` [Example 155, 4-(2-(4-(3-cyanopropoxy)-2,6-difluorophenyl)-1H-indol-5-yl)-3-methylbenzonitrile]: 87 nM; for `COc1ccc(-c2ccc3[nH]c(-c4c(F)cccc4F)cc3c2)c(C(F)(F)F)c1` [Example 99, 2-(2,6-Difluoro-phenyl)-5-(4-methoxy-2-trifluoromethyl-phenyl)-1H-indole]: 344 nM.

In the case of `COc1ccc2c(c1)nc(C(F)(F)F)n2-c1ccc2[nH]c(-c3c(F)cccc3F)cc2c1` [Example 2, 1-[2-(2,6-Difluoro-phenyl)-1H-indol-5-yl]-5-methoxy-2-trifluoromethyl-1H-benzoimidazole], the IC50 stood at 830 nM. For `Cc1cccc(C)c1-c1cc2cc(-c3nc(-c4ccccn4)sc3C)ccc2[nH]1` [Example 219, 2-(2,6-Dimethyl-phenyl)-5-(5-methyl-2-pyridin-2-yl-thiazol-4-yl)-1H-indole] the value was 158 nM; for `Cn1nc(C(F)(F)F)cc1-c1ccc2[nH]c(-c3cccc(Cl)c3Cl)cc2c1` [Example 41, 2-(2,3-Dichloro-phenyl)-5-(2-methyl-5-trifluoromethyl-2H-pyrazol-3-yl)-1H-indole], 486 nM. `Cc1sc(-c2ccccn2)nc1-c1ccc2[nH]c(-c3c(F)cccc3F)cc2c1` [Example 4, 2-(2,6-Difluoro-phenyl)-5-(5-methyl-2-pyridin-2-yl-thiazol-4-yl)-1H-indole]: it took 219 nM to reach half-maximal inhibition (IC50). Against the preceding compound, the IC50 is about 2.2-fold lower.

`Cn1nc(C(F)(F)F)cc1-c1ccc2[nH]c(-c3c(F)cccc3F)cc2c1` [Example 1, 2-(2,6-Difluoro-phenyl)-5-(2-methyl-5-trifluoromethyl-2H-pyrazol-3-yl)-1H-indole] yielded a 50% inhibitory concentration (IC50) of 46 nM.
